Assay results reported in patent US6660768B2, “Parasiticidal compositions and methods of use” (Schering-Plough Animal Health Corporation, priority 2001, dated 2003).

Tests used:
[1] = Example 3A: relative solubility of permethrin in neat solvents, seeded solutions in cold bath, supernatant assayed
Procedure: (§1) These solutions were poured into 100 mL tubes with screw top caps. These tubes were placed in the cold water bath and allowed to come to equilibrium at the temperature of the bath. […] The seeded preparations were then thoroughly shaken, replaced in the bath and allowed to remain in the bath for a 24 hour period. The preparations were then examined for crystallization, then again thoroughly agitated and replaced in the bath for an additional time period. Samples of the supernatant were removed after additional crystallization had occurred.
After 24 hours the tubes were examined for the relative amount of crystallization that may have occurred in each of the solutions. Where crystallization had occurred, samples of the supernatant were pulled from the vials and the temperature of the bath was lowered to 15° C.
Samples were again taken for assay from the solutions of hexylene glycol and methyl Carbitol® (diethylene glycol monomethyl ether).

[2] = Example 3B: solubility of permethrin in PM (propylene glycol monomethyl ether), DM (diethylene glycol monomethyl ether) and PM or DPM (dipropylene glycol monomethyl ether)/d-limonene mixtures at low temperatures, seeded
Procedure: as §1
The solvent mixtures tested were: dipropylene glycol monomethyl ether/d-limonene and propylene glycol monomethyl ether/d-limonene.
These solvent mixtures were evaluated at ratios of 2:1, 1:1, 1:2, and then at 8:2 and 9:1 (the first number refers to one of the glycol ethers, the second number refers to d-limonene).

[3] = Diethylene Glycol Monomethyl Ether, Initial
[4] = Dipropylene Glycol Monomethyl Ether, Initial
[5] = Propylene Glycol Monomethyl Ether, Initial

SMILES: CC1(C)C(C=C(Cl)Cl)C1C(=O)OCc1cccc(Oc2ccccc2)c1 (centres unmarked) [permethrin]
- Permethrin ([1]; Diethylene Glycol Monomethyl Ether, 20° C.): 75.02%
- Permethrin ([1]; Diethylene Glycol Monomethyl Ether, 25° C.): 74.90%
- Cis Isomer [1, 3]: 28.79%
- Permethrin [1, 3]: 69.70%
- Trans Isomer [1, 3]: 40.91%
- Permethrin ([1]; Diethylene Glycol Monomethyl Ether, […] C.): 74.44%
- Permethrin ([1]; Dipropylene Glycol Monomethyl Ether, 15° C.): 73.83%
- Permethrin ([1]; Dipropylene Glycol Monomethyl Ether, 20° C.): 75.15%
- Permethrin ([1]; Dipropylene Glycol Monomethyl Ether, 25° C.): 75.39%
- Cis Isomer [1, 4]: 29.41%
- Permethrin [1, 4]: 70.35%
- Trans Isomer [1, 4]: 40.94%
- solubility among the tested solvents ([1]; Examples 3A-3D, low temperatures, order: d-limonene, PM, DPM, diethylene glycol monomethyl ether, hexylene glycol): greatest solubility in d-limonene
- Permethrin ([1]; Hexylene Glycol, 25° C.): 75.02%
- Cis Isomer ([1]; Hexylene Glycol, Initial): 29.77%
- Permethrin ([1]; Hexylene Glycol, Initial): 71.09%
- Trans Isomer ([1]; Hexylene Glycol, Initial): 41.32%
- Permethrin ([1]; Hexylene Glycol, […] C.): 74.37%
- Permethrin ([1]; Propylene Glycol Monomethyl Ether, 15° C.): 74.85%
- Permethrin ([1]; Propylene Glycol Monomethyl Ether, 20° C.): 74.84%
- Permethrin ([1]; Propylene Glycol Monomethyl Ether, 25° C.): 75.66%
- Cis Isomer [1, 5]: 29.55%
- Permethrin [1, 5]: 70.78%
- Trans Isomer [1, 5]: 40.22%
- Permethrin ([1]; d-limonene, 20° C.): 74.84%
- Permethrin ([1]; d-limonene, 25° C.): 75.29%
- Cis Isomer ([1]; d-limonene, Initial): 29.54%
- Permethrin ([1]; d-limonene, Initial): 70.43%
- Trans Isomer ([1]; d-limonene, Initial): 40.89%
- % Total Permethrin ([2]; 65% permethrin in DPM/d-limonene, 0% d-limonene of solvent mixture, 0° C.): 58.25%
- % Total Permethrin ([2]; 65% permethrin in DPM/d-limonene, 0% d-limonene of solvent mixture, 5° C.): 60.53%
- % Total Permethrin ([2]; 65% permethrin in DPM/d-limonene, 10% d-limonene of solvent mixture, 10° C.): 61.42%
- % Total Permethrin ([2]; 65% permethrin in DPM/d-limonene, 20% d-limonene of solvent mixture, 10° C.): 63.46%
- % Total Permethrin ([2]; 65% permethrin in DPM/d-limonene, 33% d-limonene of solvent mixture, 0° C.): 61.65%
- % Total Permethrin ([2]; 65% permethrin in DPM/d-limonene, 33% d-limonene of solvent mixture, 5° C.): 63.92%
- % Total Permethrin ([2]; 65% permethrin in DPM/d-limonene, 33% d-limonene of solvent mixture, 10° C.): 64.93%
- % Total Permethrin ([2]; 65% permethrin in DPM/d-limonene, 50% d-limonene of solvent mixture, 0° C.): 61.55%
- % Total Permethrin ([2]; 65% permethrin in DPM/d-limonene, 50% d-limonene of solvent mixture, 5° C.): 64.83%
- % Total Permethrin ([2]; 65% permethrin in DPM/d-limonene, 50% d-limonene of solvent mixture, 10° C.): 64.30%
- % Total Permethrin ([2]; 65% permethrin in DPM/d-limonene, 67% d-limonene of solvent mixture, 0° C.): 61.33%
- % Total Permethrin ([2]; 65% permethrin in DPM/d-limonene, 67% d-limonene of solvent mixture, 5° C.): 65.55%
- % Total Permethrin ([2]; 65% permethrin in DPM/d-limonene, 67% d-limonene of solvent mixture, 10° C.): 64.92%
- % Total Permethrin ([2]; 65% permethrin in DPM/d-limonene, 100% d-limonene of solvent mixture, 0° C.): 60.27%
- % Total Permethrin ([2]; 65% permethrin in DPM/d-limonene, 100% d-limonene of solvent mixture, 5° C.): 62.73%
- % Total Permethrin ([2]; 65% permethrin in DPM/d-limonene, 100% d-limonene of solvent mixture, 10° C.): 65.88%
- % Total Permethrin ([2]; 65% permethrin in PM/d-limonene, 0% d-limonene of solvent mixture, 0° C.): 52.65%
- % Total Permethrin ([2]; 65% permethrin in PM/d-limonene, 0% d-limonene of solvent mixture, 5° C.): 59.51%
- % Total Permethrin ([2]; 65% permethrin in PM/d-limonene, 10% d-limonene of solvent mixture, 10° C.): 62.08%
- % Total Permethrin ([2]; 65% permethrin in PM/d-limonene, 20% d-limonene of solvent mixture, 10° C.): 64.35%
- % Total Permethrin ([2]; 65% permethrin in PM/d-limonene, 33% d-limonene of solvent mixture, 0° C.): 59.42%
- % Total Permethrin ([2]; 65% permethrin in PM/d-limonene, 33% d-limonene of solvent mixture, 5° C.): 63.08%
- % Total Permethrin ([2]; 65% permethrin in PM/d-limonene, 33% d-limonene of solvent mixture, 10° C.): 63.89%
- % Total Permethrin ([2]; 65% permethrin in PM/d-limonene, 50% d-limonene of solvent mixture, 0° C.): 61.74%
- % Total Permethrin ([2]; 65% permethrin in PM/d-limonene, 50% d-limonene of solvent mixture, 5° C.): 64.05%
- % Total Permethrin ([2]; 65% permethrin in PM/d-limonene, 50% d-limonene of solvent mixture, 10° C.): 64.45%
- % Total Permethrin ([2]; 65% permethrin in PM/d-limonene, 67% d-limonene of solvent mixture, 0° C.): 61.45%
- % Total Permethrin ([2]; 65% permethrin in PM/d-limonene, 67% d-limonene of solvent mixture, 5° C.): 64.86%
- % Total Permethrin ([2]; 65% permethrin in PM/d-limonene, 67% d-limonene of solvent mixture, 10° C.): 65.95%
- % Total Permethrin ([2]; 65% permethrin in PM/d-limonene, 100% d-limonene of solvent mixture, 0° C.): 60.27%
- % Total Permethrin ([2]; 65% permethrin in PM/d-limonene, 100% d-limonene of solvent mixture, 5° C.): 62.73%
- % Total Permethrin ([2]; 65% permethrin in PM/d-limonene, 100% d-limonene of solvent mixture, 10° C.): 65.88%
- % Total Permethrin ([2]; 70% permethrin in DPM/d-limonene, 0% d-limonene of solvent mixture, 0° C.): 64.24%
- % Total Permethrin ([2]; 70% permethrin in DPM/d-limonene, 0% d-limonene of solvent mixture, 5° C.): 65.56%
- % Total Permethrin ([2]; 70% permethrin in DPM/d-limonene, 0% d-limonene of solvent mixture, 10° C.): 66.58%
- % Total Permethrin ([2]; 70% permethrin in DPM/d-limonene, 10% d-limonene of solvent mixture, 10° C.): 66.95%
- % Total Permethrin ([2]; 70% permethrin in DPM/d-limonene, 20% d-limonene of solvent mixture, 10° C.): 67.71%
- % Total Permethrin ([2]; 70% permethrin in DPM/d-limonene, 33% d-limonene of solvent mixture, 5° C.): 69.64%
- % Total Permethrin ([2]; 70% permethrin in DPM/d-limonene, 33% d-limonene of solvent mixture, 10° C.): 67.38%
